Entries after “also recorded” stand apart in the source; their conditions may differ. Square brackets hold non-standard residues; d marks the D form. Peptide text beside a SMILES is read from it. dPhe(4-Cl) = N[C@H](Cc1ccc(Cl)cc1)C(=O)O; d2Nal = N[C@H](Cc1ccc2ccccc2c1)C(=O)O; d(hCit) = NC(=O)NCCCC[C@@H](N)C(=O)O; dCit = NC(=O)NCCC[C@@H](N)C(=O)O; tBuAla = CC(C)(C)C[C@H](N)C(=O)O; d3Pal = N[C@H](Cc1cccnc1)C(=O)O; pGlu = O=C1CC[C@@H](C(=O)O)N1
T1: LH-RH receptors (Rattus norvegicus, UniProt P30969)
T1 sequence (P30969 1-327): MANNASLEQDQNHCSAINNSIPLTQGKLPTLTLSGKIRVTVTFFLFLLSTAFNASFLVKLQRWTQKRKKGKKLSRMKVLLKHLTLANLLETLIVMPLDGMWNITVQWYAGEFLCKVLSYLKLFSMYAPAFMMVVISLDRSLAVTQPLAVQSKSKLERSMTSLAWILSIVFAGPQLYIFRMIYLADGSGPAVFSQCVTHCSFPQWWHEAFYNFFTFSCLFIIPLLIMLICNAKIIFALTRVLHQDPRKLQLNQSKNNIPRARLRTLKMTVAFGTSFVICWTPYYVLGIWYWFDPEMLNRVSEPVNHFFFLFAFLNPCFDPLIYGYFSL

B1: AcD-Nal-D-pClPhe-D-Pal-Ser-Tyr-D-HCit-Npg-Arg-Pro-D-Ala-NH2 (peptide)
peptide: Ac-X[dPhe(4-Cl)][d3Pal]SY[d(hCit)][tBuAla]RP[dA]-NH2
modifications: not fully specified (residue 1); printed as AcD-Nal-D-pClPhe-D-Pal-Ser-Tyr-D-HCit-Npg-Arg-Pro-D-Ala-NH2; also: trifluoroacetate salt
B2: pGlu-His-Trp-Ser-Tyr-D-Phe-Npg-Arg-Pro-Gly-NH2 (peptide)
peptide: XHWSYXXRPG
modifications: pGlu at 1; D-Phe at 6; Npg at 7; C-terminal Gly-NH2 (amide)
B3: AcD-Nal-D-pClPhe-D-Pal-Ser-Tyr-D-Cit-Npg-Arg-Pro-D-Ala-NH2 (peptide)
peptide: Ac-X[dPhe(4-Cl)][d3Pal]SY[dCit][tBuAla]RP[dA]-NH2
modifications: not fully specified (residue 1); printed as AcD-Nal-D-pClPhe-D-Pal-Ser-Tyr-D-Cit-Npg-Arg-Pro-D-Ala-NH2; also: trifluoroacetate salt
B4: pGlu-His-Trp-Ser-Tyr-D-Npg-Npg-Arg-Pro-Gly-NH2 (peptide)
peptide: XHWSYXXRPG
modifications: pGlu at 1; D-Npg at 6; Npg at 7; C-terminal Gly-NH2 (amide)
B5: pGlu-His-Trp-Ser-Tyr-D-Ala-Npg-Arg-Pro-Gly-NH2 (peptide)
peptide: XHWSYXXRPG
modifications: pGlu at 1; D-Ala at 6; Npg at 7; C-terminal Gly-NH2 (amide)
B6: pGlu-His-Trp-Ser-Tyr-D-Nal-Npg-Arg-Pro-Gly-NH2 (peptide)
peptide: XHWSYXXRPG
modifications: pGlu at 1; D-Nal (3-(2-naphtyl)alanine) at 6; Npg at 7; C-terminal Gly-NH2 (amide)

Experiments:
LH-RH receptors [1] = biological target: T1, LH-RH receptors; experiment: biochemical
LH-RH receptors [2] = biological target: T1, LH-RH receptors; experiment: Stimulation of testosterone secretion in adult male rats after subcutaneous injection (agonist activity in vivo); design: exert an agonist activity upon the LH-RH receptors in vivo; from tissue; host or cells: whole animal, adult male Sprague-Dawley rats; species or system Sprague-Dawley rats; details: for Total plasma testosterone: Table 2, 10 ng/kg subcutaneous in PBS, blood two hours later, male Sprague-Dawley rats, vehicle 2.7 ± 0.3; for agonistic potency in words: comment on Tables 2 and 3
Experimental: The peptides according to the general formula (IIa) exert an agonist activity upon the LH-RH receptors in vivo, resulting in the stimulation of LH secretion by the pituitary, which, in males, stimulates the secretion of testosterone by the testis.
Two hours later, blood samples were drawn for total plasma testosterone determination by direct radioimmunoassay (Immunotech).
At this intermediate dose of 10 ng/kg, several examples with Npg^7 or Ada^7 in place of Leu^7 according to the invention were screened for agonistic activity (Tables 2 and 3). When available from Bachem (France) or Sigma (France), the corresponding standard agonist with Leu^7 was tested for comparison.

[3] = biological target: LH-RH receptors (membrane fractions of pituitaries from female Sprague Dawley rats) (rat (female Sprague Dawley)) (UniProt P30969); experiment: competition with [125I]-buserelin, rat pituitary membranes; Ki by Cheng-Prusoff

| Molecule | Ki (LH-RH receptors [1]) | Total plasma testosterone (LH-RH receptors [2]) | pKi [3] | further results |
| --- | --- | --- | --- | --- |
| CCNC(=O)[C@@H]1CCCN1C(=O)[C@H](CCCNC(=N)N)NC(=O)[C@H](CC(C)C)NC(=O)[C@@H](COC(C)(C)C)NC(=O)[C@H](Cc1ccc(O)cc1)NC(=O)[C@H](CO)NC(=O)[C@H](Cc1c[nH]c2ccccc12)NC(=O)[C@H](Cc1cnc[nH]1)NC(=O)[C@@H]1CCC(=O)N1 [Buserelin, reference compound] | 447 pM | – | – | – |
| C[C@@H](NC(=O)[C@H](Cc1ccc(O)cc1)NC(=O)[C@H](CO)NC(=O)[C@H](Cc1c[nH]c2ccccc12)NC(=O)[C@H](Cc1c[nH]cn1)NC(=O)[C@@H]1CCC(=O)N1)C(=O)N[C@@H](CC(C)(C)C)C(=O)N[C@@H](CCCNC(=N)N)C(=O)N1CCC[C@H]1C(=O)NCC(N)=O [Example 3, pGlu-His-Trp-Ser-Tyr-D-Ala-Npg-Arg-Pro-Gly-NH2] ([pGlu]HWSY[dA][tBuAla]RPG-NH2) | 269 pM | 16.7 ± 1.9 nmol/L | – | – |
| CCNC(=O)[C@@H]1CCCN1C(=O)[C@H](CCCNC(=N)N)NC(=O)[C@H](CC(C)(C)C)NC(=O)[C@@H](C)NC(=O)[C@H](Cc1ccc(O)cc1)NC(=O)[C@H](CO)NC(=O)[C@H](Cc1c[nH]c2ccccc12)NC(=O)[C@H](Cc1c[nH]cn1)NC(=O)[C@@H]1CCC(=O)N1 [Example 4, pGlu-His-Trp-Ser-Tyr-D-Ala-Npg-Arg-Pro-NEt] | 97.7 pM | 33.8 ± 5.8 nmol/L | – | – |
| CCNC(=O)[C@@H]1CCCN1C(=O)[C@H](CCCNC(=N)N)NC(=O)[C@H](CC(C)(C)C)NC(=O)[C@@H](CC(C)C)NC(=O)[C@H](Cc1ccc(O)cc1)NC(=O)[C@H](CO)NC(=O)[C@H](Cc1c[nH]c2ccccc12)NC(=O)[C@H](Cc1c[nH]cn1)NC(=O)[C@@H]1CCC(=O)N1 [Example 6, pGlu-His-Trp-Ser-Tyr-D-Leu-Npg-Arg-Pro-NEt] | 468 pM | 48.6 ± 4.3 nmol/L | – | activity in stimulating testosterone secretion relative to the Leu^7 counterpart (LH-RH receptors [2]; 10 ng/kg s.c.): a little more than twice as active as leuprorelin; agonistic potency in words (LH-RH receptors [2]; 10 ng/kg s.c.): Npg^7 led to more potent agonists than Ada^7; also recorded: more potent LH-RH agonists than current therapeutic LH-RH analogues |
| CCNC(=O)[C@@H]1CCCN1C(=O)[C@H](CCCNC(=N)N)NC(=O)[C@H](CC(C)(C)C)NC(=O)[C@@H](CC(C)(C)C)NC(=O)[C@H](Cc1ccc(O)cc1)NC(=O)[C@H](CO)NC(=O)[C@H](Cc1c[nH]c2ccccc12)NC(=O)[C@H](Cc1c[nH]cn1)NC(=O)[C@@H]1CCC(=O)N1 [Example 8, pGlu-His-Trp-Ser-Tyr-D-Npg-Npg-Arg-Pro-NEt] | 1860 pM | – | – | – |
| CC(C)(C)C[C@H](NC(=O)[C@@H](Cc1ccccc1)NC(=O)[C@H](Cc1ccc(O)cc1)NC(=O)[C@H](CO)NC(=O)[C@H](Cc1c[nH]c2ccccc12)NC(=O)[C@H](Cc1c[nH]cn1)NC(=O)[C@@H]1CCC(=O)N1)C(=O)N[C@@H](CCCNC(=N)N)C(=O)N1CCC[C@H]1C(=O)NCC(N)=O [Example 9, pGlu-His-Trp-Ser-Tyr-D-Phe-Npg-Arg-Pro-Gly-NH2] ([pGlu]HWSY[dF][tBuAla]RPG-NH2) | 2340 pM | 30.9 ± 3.6 nmol/L | – | agonistic potency in words (LH-RH receptors [2]; 10 ng/kg s.c.): range of potency similar to that of leuprorelin or tryptorelin |
| CCNC(=O)[C@@H]1CCCN1C(=O)[C@H](CCCNC(=N)N)NC(=O)[C@H](CC(C)(C)C)NC(=O)[C@@H](Cc1ccccc1)NC(=O)[C@H](Cc1ccc(O)cc1)NC(=O)[C@H](CO)NC(=O)[C@H](Cc1c[nH]c2ccccc12)NC(=O)[C@H](Cc1c[nH]cn1)NC(=O)[C@@H]1CCC(=O)N1 [Example 10, pGlu-His-Trp-Ser-Tyr-D-Phe-Npg-Arg-Pro-NEt] | 229 pM | 23.5 ± 4.0 nmol/L | – | – |
| CCNC(=O)[C@@H]1CCCN1C(=O)[C@H](CCCNC(=N)N)NC(=O)[C@H](CC(C)(C)C)NC(=O)[C@@H](Cc1c[nH]c2ccccc12)NC(=O)[C@H](Cc1ccc(O)cc1)NC(=O)[C@H](CO)NC(=O)[C@H](Cc1c[nH]c2ccccc12)NC(=O)[C@H](Cc1c[nH]cn1)NC(=O)[C@@H]1CCC(=O)N1 [Example 12, pGlu-His-Trp-Ser-Tyr-D-Trp-Npg-Arg-Pro-NEt] | 162 pM | 20.5 ± 5.2 nmol/L | – | – |
| CC(C)(C)C[C@H](NC(=O)[C@@H](Cc1ccc2ccccc2c1)NC(=O)[C@H](Cc1ccc(O)cc1)NC(=O)[C@H](CO)NC(=O)[C@H](Cc1c[nH]c2ccccc12)NC(=O)[C@H](Cc1c[nH]cn1)NC(=O)[C@@H]1CCC(=O)N1)C(=O)N[C@@H](CCCNC(=N)N)C(=O)N1CCC[C@H]1C(=O)NCC(N)=O [Example 13, pGlu-His-Trp-Ser-Tyr-D-Nal-Npg-Arg-Pro-Gly-NH2] ([pGlu]HWSY[d2Nal][tBuAla]RPG-NH2) | 1070 pM | 22.9 ± 4.2 nmol/L | – | agonistic potency in words (LH-RH receptors [2]; 10 ng/kg s.c.): range of potency similar to that of leuprorelin or tryptorelin |
| CCNC(=O)[C@@H]1CCCN1C(=O)[C@H](CCCNC(=N)N)NC(=O)[C@H](CC(C)(C)C)NC(=O)[C@@H](Cc1ccc2ccccc2c1)NC(=O)[C@H](Cc1ccc(O)cc1)NC(=O)[C@H](CO)NC(=O)[C@H](Cc1c[nH]c2ccccc12)NC(=O)[C@H](Cc1c[nH]cn1)NC(=O)[C@@H]1CCC(=O)N1 [Example 14, pGlu-His-Trp-Ser-Tyr-D-Nal-Npg-Arg-Pro-NEt] | 316 pM | – | – | – |
| pGlu-His-Trp-Ser-Tyr-D-Nal-Npg-Arg-Pro-NEt (peptide) | – | – | 9.5 -log Ki | – |
| pGlu-His-Trp-Ser-Tyr-D-Npg-Npg-Arg-Pro-NEt (peptide) | – | – | 8.73 -log Ki | – |
| pGlu-His-Trp-Ser-Tyr-D-Phe-Npg-Arg-Pro-NEt (peptide) | – | – | 9.64 -log Ki | – |
| pGlu-His-Trp-Ser-Tyr-D-Trp-Npg-Arg-Pro-NEt (peptide) | – | – | 9.79 -log Ki | – |
| B1 | – | – | 10.1 -log Ki | – |
| B2 | – | – | 8.63 -log Ki | – |
| B3 | – | – | 10.2 -log Ki | – |
| B4 | – | – | 8.2 -log Ki | – |
| B5 | – | – | 9.57 -log Ki | – |
| B6 | – | – | 8.97 -log Ki | – |

Source: patent publication US6586402B1, “LH-RH peptide analogues, their uses and pharmaceutical compositions containing them” (Laboratoire Theramex, priority 1997, dated 2003)
